Assay results as given in patent US8999970B2, “Administration of an anti-obesity compound to individuals with renal impairment” (Arena Pharmaceuticals, Inc., priority 2010, dated 2015).
Where “and” joins values, the source holds several entries; their conditions need not be identical. Equal entries are not always repeated.

What was measured:
[1] = Creatinine and creatinine clearance during 52 weeks in pooled phase 3 studies; type: in vivo, human
Protocol: Few patients in the APD356-009 trial developed creatinine values above or creatinine clearance values below normal (Table 12). At study entry, no patient had creatinine clearance less than 30 mL/min, and only 4 (1 randomized to lorcaserin, 3 to placebo) had values below 40 mL/min based on ideal body weight. […] Given the small number of patients with moderate or greater renal impairment in the phase 3 studies, a meaningful evaluation of the relationship between adverse events and renal impairment is not possible.

[2] = Pivotal phase 3 clinical trial program (weight loss); type: in vivo, human
Text: (§1) In December 2009, Arena Pharmaceuticals submitted a New Drug Application, or NDA, for lorcaserin to the FDA. The NDA submission is based on an extensive data package from lorcaserin's clinical development program that includes 18 clinical trials totaling 8,576 patients. […] About two-thirds of patients achieved at least 5% weight loss and over one-third achieved at least 10% weight loss. On average, patients lost 17 to 18 pounds or about 8% of their weight. Secondary endpoints, including body composition, lipids, cardiovascular risk factors and glycemic parameters improved compared to placebo. In addition, heart rate and blood pressure went down. […] Lorcaserin improved quality of life, and there was no signal for depression or suicidal ideation. The only adverse event that exceeded the placebo rate by 5% was generally mild or moderate, transient headache. Based on a normal BMI of 25, patients in the first phase 3 trial lost about one-third of their excess body weight. The average weight loss was 35 pounds or 16% of body weight for the top quartile of patients in the second phase 3 trial.
as §1, with “Heart” for “In addition, heart”

[3] = Toxicity studies in mice (determination of NOAEL); type: in vivo, mouse
Protocol: In the mouse, seizures occurred at single doses of 100 and 300 mg/kg lorcaserin, and death followed single doses of 1000 and 2000 mg/kg. In repeat dose studies in mice, mortality occurred at
doses ≧200 mg/kg. A dose of 250 mg/kg/day produced exposure multiples of 25 and 27 times (males and females) the exposure achieved in humans at a dose of 10 mg BID. At this dose, decreased red blood cell mass, increased reticulocytosis, increased liver weight, centrilobular hepatocellular hypertrophy, increased extramedullary hematopoeisis, and thymic necrosis occurred. The NOAEL in mice was 50 mg/kg/day, which produced exposure multiples of 7.6 and 2.3 (males and females) times the exposure in humans at 10 mg BID.

[4] = APD356-009 study: M1 Cmax at Week 12 following lorcaserin 10 mg BID
[5] = phase 3 program, treated for up to two years

Compound | Creatinine Clearance at Last Observation (Ideal Body Weight), Mean (SEM) Change from Baseline ([1]; Any Lorcaserin Dose, N 3746) | Creatinine Clearance at Last Observation (Ideal Body Weight), Mean (SEM) Change from Baseline ([1]; Lorcaserin 10 mg BID Pooled, N 2992) | Excess body weight lost ([2]; first phase 3 trial, based on a normal BMI of 25) | Average weight lost, of their weight ([2]; phase 3 program) | Risk of cardiac valvulopathy ([2]; phase 3 program) | Patients who achieved at least 5% weight loss [2, 5] | Patients who achieved at least 10% weight loss [2, 5] | Average weight loss, top quartile of patients ([2]; second phase 3 trial) | Average weight loss, top quartile of patients, of body weight ([2]; second phase 3 trial) | NOAEL ([3]; both sexes, mouse, in vivo, mice) | Exposure multiple of human exposure at 10 mg BID ([3]; mice 50 mg/kg/day (NOAEL), females) | Exposure multiple of human exposure at 10 mg BID ([3]; mice 50 mg/kg/day (NOAEL), males) | Exposure multiple of human exposure at 10 mg BID ([3]; mice 250 mg/kg/day, females) | Exposure multiple of human exposure at 10 mg BID ([3]; mice 250 mg/kg/day, males) | Doses at which mortality occurred ([3]; mice, repeat dose studies) | Single doses followed by death ([3]; mouse) | Mean Cmax observed in patients [4]
C[C@H]1CNCCc2ccc(Cl)cc21 [Lorcaserin, (R)-8-chloro-1-methyl-2,3,4,5-tetrahydro-1H-3-benzazepine] | 0.25 (0.165) | 0.47 (0.181) | about one-third | about 8% | did not increase the risk | About two-thirds | over one-third | 35 pounds | 16% | 50 mg/kg/day | 2.3 times | 7.6 times | 27 times | 25 times | ≥ 200 mg/kg | 1000 mg/kg and 2000 mg/kg | –
C[C@H]1CN(S(=O)(=O)O)CCc2ccc(Cl)cc21 [Compound M1, lorcaserin sulfamate] | – | – | – | – | – | – | – | – | – | – | – | – | – | – | – | – | 196 ng/mL
